Columns and labels:
tau protein = molecular target: T1, tau protein (Homo sapiens, UniProt P10636); assay: Tau-BiFC cell model: inhibition of tau protein aggregation; format: cell-based
T1 construct: fused on or other part: Split fluorescent-protein halves for BiFC are fused to tau; In the published tau-BiFC line these are Venus VN173 and VC155
How it was run: (§1)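 Tau-BiFC cells were exposed for 48 h to compound (1, 3, 10 μM for screening; 0.03–30 μM for dose-response) plus 30 μM Forskolin to induce aggregation. BiFC fluorescence was normalised to Forskolin-only minus untreated controls, with IC50 from nonlinear regression. Viability was Hoechst-stained nuclei counts relative to Forskolin-only wells.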

Tau-BiFC cells = assay: Cell viability (cytotoxicity) in tau-BiFC cells, count of stained nuclei; format: cell-based; settings: compound 10 μM; Forskolin-only group = 100% cell viability
How it was run: as §1

CYP1A2 = molecular target: T2, CYP1A2 (Homo sapiens, UniProt P05177); assay: Inhibitory effect on CYP coenzyme activity, human liver microsomes; format: in vitro ADME; settings: compound 10 μM; human liver microsomes 0.25 mg/mL; substrate phenacetin; 15 minutes
T2 construct: human liver microsomes (0.25 mg/mL); from tissue; host or cells: human liver microsomes
T2 sequence (P05177 1-516): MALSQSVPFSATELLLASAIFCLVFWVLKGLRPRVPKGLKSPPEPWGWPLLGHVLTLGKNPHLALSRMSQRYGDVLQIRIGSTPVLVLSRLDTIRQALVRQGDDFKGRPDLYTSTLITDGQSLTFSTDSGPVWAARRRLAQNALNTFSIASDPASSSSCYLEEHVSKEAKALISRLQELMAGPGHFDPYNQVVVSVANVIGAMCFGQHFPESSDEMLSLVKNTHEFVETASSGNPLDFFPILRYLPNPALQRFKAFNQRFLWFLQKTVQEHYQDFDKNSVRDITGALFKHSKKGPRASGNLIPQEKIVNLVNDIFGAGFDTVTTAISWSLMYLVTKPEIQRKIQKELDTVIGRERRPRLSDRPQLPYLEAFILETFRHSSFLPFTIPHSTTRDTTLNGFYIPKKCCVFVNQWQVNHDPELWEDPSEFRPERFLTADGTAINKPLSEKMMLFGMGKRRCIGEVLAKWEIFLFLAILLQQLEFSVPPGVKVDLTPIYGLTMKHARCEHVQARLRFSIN
How it was run: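 Read-out is LC-MS/MS (MRM) quantification of marker metabolites, compared between 10 μM compound and vehicle (0 μM). Microsomes (0.25 mg/mL, pH 7.4 phosphate) carried a five-probe cocktail including diclofenac 10 μM, S-mephenytoin 100 μM, dextromethorphan 5 μM and midazolam 2.5 μM, and were incubated 15 min at 37 °C with NADPH.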

CYP2C19 = molecular target: T3, CYP2C19 (Homo sapiens, UniProt P33261); assay: as above; format: in vitro ADME; settings: compound 10 μM; human liver microsomes 0.25 mg/mL; substrate S-mephenytoin; 15 minutes
T3 construct: human liver microsomes (0.25 mg/mL); from tissue; host or cells: human liver microsomes
T3 sequence (P33261 whole entry): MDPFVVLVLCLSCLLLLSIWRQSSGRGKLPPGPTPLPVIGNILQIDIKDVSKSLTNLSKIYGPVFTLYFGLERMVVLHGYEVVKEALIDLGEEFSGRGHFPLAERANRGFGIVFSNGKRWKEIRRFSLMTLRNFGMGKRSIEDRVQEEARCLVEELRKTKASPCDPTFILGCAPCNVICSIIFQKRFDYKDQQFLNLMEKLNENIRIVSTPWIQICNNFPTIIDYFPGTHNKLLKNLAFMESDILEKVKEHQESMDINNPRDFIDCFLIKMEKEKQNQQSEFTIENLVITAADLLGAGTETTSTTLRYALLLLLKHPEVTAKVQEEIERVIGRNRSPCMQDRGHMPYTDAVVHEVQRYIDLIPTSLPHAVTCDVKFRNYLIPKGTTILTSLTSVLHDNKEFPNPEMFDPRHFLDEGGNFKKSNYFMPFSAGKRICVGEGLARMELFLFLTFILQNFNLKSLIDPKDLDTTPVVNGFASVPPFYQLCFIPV
How it was run: (§2)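 Human liver microsomes (0.25 mg/mL, pH 7.4) were incubated with a substrate cocktail (10 μM diclofenac, 100 μM S-mephenytoin, 5 μM dextromethorphan, 2.5 μM midazolam) and compound at 0 or 10 μM. After 5 min preincubation at 37 °C, NADPH was added for 15 min. Metabolites were quantified by LC-MS/MS MRM.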

CYP2C9 = molecular target: T4, CYP2C9 (Homo sapiens, UniProt P11712); assay: as above; format: in vitro ADME; settings: compound 10 μM; human liver microsomes 0.25 mg/mL; substrate diclofenac; 15 minutes
T4 construct: human liver microsomes (0.25 mg/mL); from tissue; host or cells: human liver microsomes
T4 sequence (P11712 whole entry): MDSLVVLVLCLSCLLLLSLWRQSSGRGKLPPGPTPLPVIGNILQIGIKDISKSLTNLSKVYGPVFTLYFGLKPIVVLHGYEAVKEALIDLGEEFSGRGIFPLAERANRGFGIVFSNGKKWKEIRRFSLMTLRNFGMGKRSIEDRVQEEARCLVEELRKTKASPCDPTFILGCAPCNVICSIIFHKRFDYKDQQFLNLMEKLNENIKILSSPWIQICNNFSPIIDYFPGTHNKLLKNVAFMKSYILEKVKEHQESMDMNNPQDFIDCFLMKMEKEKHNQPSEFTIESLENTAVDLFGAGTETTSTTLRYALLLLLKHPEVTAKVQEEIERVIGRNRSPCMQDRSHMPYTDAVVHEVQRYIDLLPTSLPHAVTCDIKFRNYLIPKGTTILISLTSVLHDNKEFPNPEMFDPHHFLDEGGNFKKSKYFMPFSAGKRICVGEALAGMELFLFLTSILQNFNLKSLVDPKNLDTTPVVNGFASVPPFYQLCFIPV
How it was run: as §2

CYP2D6 = molecular target: T5, CYP2D6 (Homo sapiens, UniProt P10635); assay: as above; format: in vitro ADME; settings: compound 10 μM; human liver microsomes 0.25 mg/mL; substrate dextromethorphan; 15 minutes
T5 construct: human liver microsomes (0.25 mg/mL); from tissue; host or cells: human liver microsomes
T5 sequence (P10635 whole entry): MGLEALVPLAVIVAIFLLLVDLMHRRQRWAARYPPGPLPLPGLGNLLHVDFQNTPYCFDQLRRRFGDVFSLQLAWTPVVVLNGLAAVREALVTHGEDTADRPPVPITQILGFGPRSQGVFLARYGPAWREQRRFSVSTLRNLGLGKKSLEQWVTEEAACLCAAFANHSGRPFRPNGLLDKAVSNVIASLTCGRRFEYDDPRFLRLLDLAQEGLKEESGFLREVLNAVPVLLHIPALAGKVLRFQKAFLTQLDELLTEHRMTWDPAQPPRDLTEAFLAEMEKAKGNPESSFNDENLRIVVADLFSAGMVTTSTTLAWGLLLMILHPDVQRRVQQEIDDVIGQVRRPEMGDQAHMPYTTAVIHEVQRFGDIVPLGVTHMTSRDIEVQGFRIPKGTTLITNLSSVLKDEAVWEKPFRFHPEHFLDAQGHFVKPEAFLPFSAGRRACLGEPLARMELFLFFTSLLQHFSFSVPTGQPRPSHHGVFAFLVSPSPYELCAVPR
How it was run: as §2

CYP3A4 = molecular target: T6, CYP3A4 (Homo sapiens, UniProt P08684); assay: as above; format: in vitro ADME; settings: compound 10 μM; human liver microsomes 0.25 mg/mL; substrate midazolam; 15 minutes
T6 construct: human liver microsomes (0.25 mg/mL); from tissue; host or cells: human liver microsomes
T6 sequence (P08684 whole entry): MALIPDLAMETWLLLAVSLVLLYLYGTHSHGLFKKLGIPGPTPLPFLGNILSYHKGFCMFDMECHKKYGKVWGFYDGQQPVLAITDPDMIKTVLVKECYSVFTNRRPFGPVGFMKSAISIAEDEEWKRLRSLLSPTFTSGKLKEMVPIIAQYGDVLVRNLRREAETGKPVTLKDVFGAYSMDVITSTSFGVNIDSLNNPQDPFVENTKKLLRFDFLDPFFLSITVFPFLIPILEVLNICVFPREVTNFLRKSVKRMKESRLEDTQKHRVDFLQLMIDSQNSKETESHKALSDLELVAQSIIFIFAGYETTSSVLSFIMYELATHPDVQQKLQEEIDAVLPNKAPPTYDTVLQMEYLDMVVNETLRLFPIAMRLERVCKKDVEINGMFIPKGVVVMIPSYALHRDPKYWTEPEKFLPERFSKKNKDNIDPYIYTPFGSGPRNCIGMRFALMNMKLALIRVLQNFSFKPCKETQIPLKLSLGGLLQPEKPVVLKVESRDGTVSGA
How it was run: as §2

[1] = Liver microsome stability; format: in vitro ADME, human; settings: amount of substrate remaining; compound 1 μM, 30 minutes, 37° C., NADPH
How it was run: (§3)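 Human, dog, rat and mouse liver microsomes (0.25 mg/mL) with 1 μM compound in 0.1 M phosphate buffer pH 7.4, preincubated 5 min at 37° C, then incubated 30 min at 37° C with NADPH-generating system. Reaction stopped with acetonitrile containing internal standard; remaining parent quantified by LC-MS/MS.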

[2] = Liver microsome stability; format: in vitro ADME, dog; settings: amount of substrate remaining; compound 1 μM, 30 minutes, 37° C., NADPH
Description: The stability of liver microsomes due to the compounds prepared according to Examples 1 to 175 was confirmed. Specifically, four types of liver microsomes (human, dog, rat, and mouse, each 0.25 mg/mL), a 0.1 M phosphate buffer solution (pH 7.4), and each of the compounds at a concentration of 1 μM were mixed and pre-cultured at 37° C. for 5 minutes and further cultured at 37° C. for 30 minutes together with an NADPH generation system solution added thereto. Thereafter, the reaction was terminated by adding an acetonitrile solution containing an internal standard material (chloropropamide) and centrifuged for 5 minutes (14,000 rpm, 4° C.), and then a supernatant was injected into an LC-MS/MS system for analysis of substrate drugs to thereby evaluate metabolic stability due to 8 types of compounds.
The amount of the substrate remaining after the reaction was analyzed using the Shimadzu Nexera XR system and TSQ Vantage (Thermo). In an HPLC column, Kinetex XB-C18 (2.1 mm×100 mm, particle size of 2.6 μm; Phenomenex, USA) was used, and mobile phases were (A) distilled water containing 0.1% formic acid and (B) acetonitrile containing 0.1% formic acid. Analyst software (version 1.6.3) and Xcalibur (version 1.6.1) were used for data analysis.

[3] = Liver microsome stability; format: in vitro ADME, rat; settings: amount of substrate remaining; compound 1 μM, 30 minutes, 37° C., NADPH
How it was run: as §3

[4] = Liver microsome stability; format: in vitro ADME, mouse; settings: amount of substrate remaining; compound 1 μM, 30 minutes, 37° C., NADPH
How it was run: as §3

T1 sequence (P10636 2-441 isoform P10636-8 limits assumed): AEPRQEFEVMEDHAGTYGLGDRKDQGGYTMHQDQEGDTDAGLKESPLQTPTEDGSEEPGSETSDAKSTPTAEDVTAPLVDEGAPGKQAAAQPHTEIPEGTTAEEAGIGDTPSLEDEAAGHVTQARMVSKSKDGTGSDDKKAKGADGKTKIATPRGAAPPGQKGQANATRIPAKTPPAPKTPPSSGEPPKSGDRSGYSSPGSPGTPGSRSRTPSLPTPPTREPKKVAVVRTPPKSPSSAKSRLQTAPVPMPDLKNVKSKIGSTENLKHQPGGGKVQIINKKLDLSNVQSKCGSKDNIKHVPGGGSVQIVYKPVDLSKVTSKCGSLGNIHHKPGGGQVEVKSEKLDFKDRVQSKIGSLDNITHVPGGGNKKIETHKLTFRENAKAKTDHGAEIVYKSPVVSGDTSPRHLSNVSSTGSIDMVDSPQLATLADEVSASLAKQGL

Cc1cncc(NC(=O)c2ccc(NN=C(C#N)C#N)cc2)n1 [Compound 46, (4-(6-methylpyrazin-2-ylcarbamoyl)phenyl)carbonohydrazonoyl dicyanide]
remaining activity at 10 µM (tau protein; 48 h, compound 10 μM, BiFC fluorescence, Forskolin-only group = 100% tau protein-aggregated state, read-out: Response (% @10 μM)): 0% | IC50 (tau protein; Tau BiFC in cells, with Forskolin 30 μM, 48 hours): 860 nM | Cell viability (% @10 μM) (Tau-BiFC cells): 155% | CYP1A2 (CYP1A2): 97.8 | CYP2C19 (CYP2C19): 83.1 | CYP2C9 (CYP2C9): 70.4 | CYP2D6 (CYP2D6): >100 | CYP3A4 (CYP3A4): 85.5 | Human (%) [1]: >100% | Dog (%) [2]: >100% | Rat (%) [3]: 86.3% | Mouse (%) [4]: >100%
